Assay results as given in patent US11767295B2, “Isoindole derivative” (TIANJIN HEMAY PHARMACEUTICAL CO., LTD., priority 2018, dated 2023).

Experiments:
Assay type in all cases: in vivo
[1] = tested on: Phorbol ester (TPA)-induced ear swelling in mice; assay: Inhibition of phorbol ester (TPA)-induced ear swelling in mice (Biological Example 4); details: ICR mice, 30 mg/mL in acetone, 40 μL in 2 administrations on right ear; 5 hours after TPA modeling
Protocol: 40 male ICR mice were selected and divided into 5 groups. There were 8 mice in each group.
Before the test, the animals were grouped and the hair around the right ear of the mice was removed.
20 μL of respective drug was applied to the animals in each test group (a blank solvent was applied to the model control group). Modeling and induction were carried out after 1 h 10 min. Except for the blank group, 20 μL of TPA at a concentration of 125 μg/mL were applied to the right ears of the animals for induction. After induction for 10 minutes, 20 μL of respective drug was applied to the right ears of the animals in each test group (a blank solvent was applied to the model control group).
After modeling for 5 hours, ear pieces of both sides on the same location of animals in each group were taken with a punch and weighed to calculate the ear swelling degree, ear swelling rate and inhibitory rate.
The ear swelling degree and ear swelling rate after modeling and administration for 5 hours were analyzed and tested with One-Way ANOVA multiple-group test index in SPSS17.0. P<0.05 indicated there were statistical differences. Ear swelling degree (mg)=right ear weight (mg)−left ear weight (mg); Ear swelling rate (%)=(right ear weight−left ear weight)/left ear weight×100%; Inhibitory rate of ear swelling degree (%)=1−(ear swelling degree of drug administration group−ear swelling degree of blank control group)/(ear swelling degree of model control group−ear swelling degree of blank control group)×100%.

[2] = tested on: DNCB-induced atopic dermatitis in Balb/c mice; assay: Efficacy evaluation test of DNCB-induced atopic dermatitis in Balb/c mice model (Biological Example 3); details: BID × 11
Protocol: 30 healthy male SPF Balb/c mice, each of which the weight was 19-21 g, were randomly divided into 3 groups by body weight. There were 10 mice in each group.
(§1) Before the test, the hair around the right ear of the mouse was removed to reduce the interference in the drug adhesion to the hair.
(§2) The start of the test was recorded as Day 1. The specific time for measuring ear thickness and body weight was slightly adjusted based on FIG. 3. After the end of the Day 19 of the test, blood was taken from each animal to detect the concentration of immunoglobulin (IgE) in the serum (in accordance with the kit instructions). Both ears of the animal were cut off. Ear pieces were cut by an 8 mm punch at the fixed position of the ears and weighed. Differences in the swelling degree of two ears were calculated.
(§3) The changes in mouse ear thickness and the ear weights of the same area and the IgE concentrations in the serum of different groups on the 19th day were analyzed and compared statistically with One-Way Anova in SPSS 17, respectively. The G test method was used to delete outliers. p<0.05 indicated there were statistical differences. Ear swelling degree (mg)=right ear weight (mg)−left ear weight (mg); Ear thickness change (mm)=right ear thickness (mm)−left ear thickness (mm); Inhibitory rate of ear swelling degree (%)=1−(ear swelling degree of drug administration group−ear swelling degree of blank control group)/(ear swelling degree of model control group−ear swelling degree of blank control group)×100%; Inhibitory rate of ear thickness change (%)=1−(ear thickness change of drug administration group−ear thickness change of blank control group)/(ear thickness change of model control group−ear thickness change of blank control group)×100%; Inhibitory rate of IgE (%)=1−(IgE concentration in administration group−IgE concentration in blank control group)/(IgE concentration in model control group−IgE concentration in blank control group)×100%.

[3] = tested on: DNCB-induced atopic dermatitis in Balb/c mice; assay: Efficacy evaluation test of DNCB-induced atopic dermatitis in Balb/c mice model (Biological Example 1); details: BID × 10
Protocol: 60 healthy male SPF Balb/c mice, each of which the body weight was 19-21 g, were randomly divided into 6 groups by body weight. There were 10 mice in each group.
as §1
as §2, with “thickness” for “thickness and body weight”, “1.” for “3.”, “18th day” for “Day 19”, “degrees” for “degree”
as §3, with “serum among” for “serum of”, “the 18th” for “the 19th”

[4] = 0.1 mg/mouse on ear, 19th day, vs model and blank control
[5] = Balb/c mice, 1 mg/mouse on ear, Day 10, Mean ± S.D.
[6] = Balb/c mice, 1 mg/mouse on ear, Day 17, Mean ± S.D.
[7] = Balb/c mice, 1 mg/mouse on ear, Day 18, Mean ± S.D.

Weight Changes of Animals, Day 1 ([2]; Balb/c mice, 0.1 mg/mouse (5 mg/mL, 20 μL) on ear, Day 1, Mean): 20.5 g
Weight Changes of Animals, Day 8 ([2]; Balb/c mice, 0.1 mg/mouse on ear, Day 8, Mean): 21.8 g
Weight Changes of Animals, Day 12 ([2]; Balb/c mice, 0.1 mg/mouse on ear, Day 12, Mean): 21.9 g
Weight Changes of Animals, Day 14 ([2]; Balb/c mice, 0.1 mg/mouse on ear, Day 14, Mean): 22.2 g
Weight Changes of Animals, Day 16 ([2]; Balb/c mice, 0.1 mg/mouse on ear, Day 16, Mean): 22.0 g
Weight Changes of Animals, Day 19 ([2]; Balb/c mice, 0.1 mg/mouse on ear, Day 19, Mean): 22.3 g
Weight Changes of Animals, Day 1 ([3]; Balb/c mice, 1 mg/mouse (50 mg/mL, 20 μL) on ear, Day 1, Mean ± S.D.): 20.6 ± 0.8 g
Weight Changes of Animals, Day 10 [3, 5]: 22.3 ± 1.1 g
Weight Changes of Animals, Day 17 [3, 6]: 21.8 ± 1.3 g
Weight Changes of Animals, Day 18 [3, 7]: 22.4 ± 1.3 g
SMILES: CCOc1cc([C@H](CC(=O)OC)N2C(=O)c3cccc(NC(C)=O)c3C2=O)ccc1OC [Example 10, methyl (S)-3-(4-acetamido-1,3-dioxoisoindolin-2-yl)-3-(3-ethoxy-4-methoxyphenyl)propionate]
Inhibitory Rate of Ear Swelling Degree [1]: 71.7%
Inhibitory Rate of Ear Swelling [2, 4]: 38.5%
Inhibitory Rate of Ear Thickness [2, 4]: 27.1%
Ear Thickness Change, Day 1 ([2]; Balb/c mice, 0.1 mg/mouse on ear, Day 1, Mean ± S.D.): 0.26 ± 0.01 mm
Ear Thickness Change, Day 10 ([2]; Balb/c mice, 0.1 mg/mouse on ear, Day 10, Mean ± S.D.): 0.52 ± 0.11 mm
Ear Thickness Change, Day 17 ([2]; Balb/c mice, 0.1 mg/mouse on ear, Day 17, Mean ± S.D.): 0.65 ± 0.09 mm
Ear Thickness Change, Day 19 ([2]; Balb/c mice, 0.1 mg/mouse on ear, Day 19, Mean ± S.D.): 0.63 ± 0.05 mm
Ear Thickness ([2]; Table 11, 0.1 mg/mouse on ear, 19th day): 0.63 mm
Ear Swelling Degree ([2]; right minus left ear piece weight, 0.1 mg/mouse on ear, 19th day): 7.7 mg
IgE Concentration ([2]; serum, 0.1 mg/mouse on ear, 19th day): 5543.4 ng/mL
Inhibitory Rate of IgE Concentration ([2]; serum, 0.1 mg/mouse on ear, 19th day, vs model and blank control): 29.7%
Inhibitory Rate of Ear Swelling Degree ([3]; 1 mg/mouse on ear, 18th day, vs model and blank control): 45.7%
Inhibitory Rate of Ear Thickness ([3]; Balb/c mice, 1 mg/mouse on ear, 18th day, vs model and blank control): 58.8%
Ear Thickness Change, Day 1 ([3]; Balb/c mice, 1 mg/mouse on ear, Day 1, Mean ± S.D.): 0.21 ± 0.01 mm
Ear Thickness Change, Day 10 [3, 5]: 0.35 ± 0.07 mm
Ear Thickness Change, Day 17 [3, 6]: 0.46 ± 0.10 mm
Ear Thickness Change, Day 18 [3, 7]: 0.44 ± 0.07 mm
Ear Thickness ([3]; Table 4, Balb/c mice, 1 mg/mouse on ear, 18th day): 0.44 ± 0.07 mm
Ear Swelling Degree ([3]; right minus left ear piece weight (8 mm punch), 1 mg/mouse on ear, 18th day): 13.7 ± 2.9 mg
IgE Concentration ([3]; serum, 1 mg/mouse on ear, 18th day): 4366.7 ± 1933.9 ng/mL
Inhibitory Rate of IgE Concentration ([3]; serum, 1 mg/mouse on ear, 18th day, vs model and blank control): 57.5%
